Test results taken from patent US20140335474A1, “FLOSS DEVICE, A METHOD OF FORMING THE FLOSS DEVICE AND A METHOD OF USING THE FLOSS DEVICE” (priority 2008, published 2014).

Test system: E. Coli (strain DH5α)
Assay: Testing of antimicrobial RXPIX: bacterial viability by turbidity of LB Broth
Format: cell-based
Conditions: 15 minutes fluid exchange at room temperature, then 2 ml LB Broth, 20 hours at 37° C., three replicates
Experimental: For each sample three replicate experiments were preformed. Briefly, a drop of the bacterium E. Coli (strain DH5α) was mixed with a small amount of a medium (Luria-Bertani Broth, or LB Broth) and allowed to exchange fluid with the floss device 10, which is named “RXPIX” for identification purposes in the following tests, for 15 minutes. After this period of time, 2 ml of LB Broth was added to each test tube and the bacteria were allowed to grow for 20 hours at 37° C. Observing the turbidity of the broth at this time assessed bacterial viability. Bacterial viability was also assessed analytically by measuring the absorbance of visible light (600 nm).
B. On Day 2, 1 micro liter of E. Coli cells was transferred to each 12×75 mm round bottom test tube for antimicrobial testing. In addition, 5 micro liters of fresh LB Broth were added to each test tube to allow for fluid exchange. […]
D. After 20 hours of incubation, bacterial viability was assessed. […]
E. To further characterize bacterial growth, the absorbance of 600 nm visible light was used to analytically measure turbidity. The broth from each sample was measured with a spectrophotometer equipped with a lamp emitting visible light.

Structure (SMILES): CCO [70% ethanol, ethanol]
- bacterial growth (turbidity of the LB Broth): no bacterial growth
- bacterial growth (turbidity of the LB Broth) (listed as 70% ethyl alcohol): not showing bacterial growth
